Reference: patent EP4650353A1 (Shanghai Institute of Materia Medica, Chinese Academy of …, priority 2023, dated 2024)
Like-named read-outs stand apart in the source and are kept apart here.

Legend:
human GLP-1 receptor = target: T1, human GLP-1 receptor (Homo sapiens, UniProt P43220); assay: GLP-1 receptor-mediated agonist activity: cAMP level in hGLP-1R/HEK293 cell line (HTRF); type: cell-based
T1 construct: HA (N); expressed in transfected cells
Experimental: The hGLP-1R/HEK293 cells were digested, centrifuged and resuspended in culture medium (DMEM+0.2% BSA, m/v), and the cell density was adjusted to 2×10^5 cells/mL. IBMX (3-isobutyl-1-methylxanthine, final concentration of 0.5 mM) was added to the cell suspension and added to a 384-well plate at 5 µL (1×10^3 cells)/well. The compound was dissolved in DMSO to prepare a stock solution with a concentration of 10 mM. The experiment started with a concentration of 100 µM which was diluted 10 times in a series of 7 dilution points, with the 8th point being DMSO. 2 µL of the test compound of different concentrations was added to 98 µL of culture medium, shaken and mixed, 5 µL was taken and added to a 384-well plate (final concentration of the test compound was 0-100 nM, final concentration of DMSO was 1%, v/v), which was then incubated in the incubator (37°C, 5% CO2) in the dark for 30 min, then 10 µL of cAMP detection reagent (LANCE Ultra cAMP Detecion Kit, PerkinElmer, #TRF0264) was added, mixed well, and reacted at room temperature in the dark for 1 h. After the reaction was completed, the HTRF signal was read using the Envision 2104 multi-function microplate reader. All samples were tested in triplicate wells, and the ratio of the acceptor-donor excitation signal in each single well was calculated using the formula Ratio = Signal 665nM/Signal 620nM. The HTRF signal ratio and the corresponding compound concentration were analyzed and processed using GraphPad Prism 8 software, and the EC50 value of the compound was obtained by fitting the S-type dose-response curve and calculating.

hERG potassium channels = hERG potassium channels (Homo sapiens, UniProt Q12809); assay: cell-based
Sequence of hERG potassium channels (Q12809 whole entry): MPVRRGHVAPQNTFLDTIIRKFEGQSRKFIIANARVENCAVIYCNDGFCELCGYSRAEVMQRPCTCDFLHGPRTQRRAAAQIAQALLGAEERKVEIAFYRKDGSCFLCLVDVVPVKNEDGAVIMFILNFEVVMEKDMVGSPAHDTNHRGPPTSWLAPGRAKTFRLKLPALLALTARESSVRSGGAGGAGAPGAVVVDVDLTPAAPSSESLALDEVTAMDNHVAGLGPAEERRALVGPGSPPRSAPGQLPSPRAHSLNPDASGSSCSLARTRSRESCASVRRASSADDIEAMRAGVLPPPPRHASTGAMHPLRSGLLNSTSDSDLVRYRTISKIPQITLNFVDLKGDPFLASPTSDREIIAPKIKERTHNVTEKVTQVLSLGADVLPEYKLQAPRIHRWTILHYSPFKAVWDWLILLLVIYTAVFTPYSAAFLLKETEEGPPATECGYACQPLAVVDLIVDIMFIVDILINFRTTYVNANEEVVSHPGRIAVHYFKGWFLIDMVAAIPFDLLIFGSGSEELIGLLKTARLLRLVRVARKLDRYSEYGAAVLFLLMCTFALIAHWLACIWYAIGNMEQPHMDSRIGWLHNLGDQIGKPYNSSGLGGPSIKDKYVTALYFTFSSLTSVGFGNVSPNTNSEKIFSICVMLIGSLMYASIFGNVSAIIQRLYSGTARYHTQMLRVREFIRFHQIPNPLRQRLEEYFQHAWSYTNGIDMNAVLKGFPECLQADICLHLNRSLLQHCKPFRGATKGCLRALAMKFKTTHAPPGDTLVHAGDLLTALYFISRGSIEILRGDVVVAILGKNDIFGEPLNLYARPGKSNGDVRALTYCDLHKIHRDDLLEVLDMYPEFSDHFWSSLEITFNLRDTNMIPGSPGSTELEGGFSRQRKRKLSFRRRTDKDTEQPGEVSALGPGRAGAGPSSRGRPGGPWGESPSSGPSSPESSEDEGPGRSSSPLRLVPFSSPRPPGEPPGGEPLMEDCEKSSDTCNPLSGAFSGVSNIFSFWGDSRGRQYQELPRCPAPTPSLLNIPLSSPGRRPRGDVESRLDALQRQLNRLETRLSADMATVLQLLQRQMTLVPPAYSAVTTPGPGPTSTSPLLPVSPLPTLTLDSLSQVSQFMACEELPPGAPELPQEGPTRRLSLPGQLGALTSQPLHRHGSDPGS
Experimental: CHO cells expressing hERG protein were cultured in 175 cm^2 culture flasks. When the cell density grew to 60-80%, the culture medium was removed, the cells were washed once with 7 mL PBS, and then 3 mL Detachin was added for digestion. After digestion was complete, 7 mL of culture medium was added to neutralize, then centrifuged. The supernatant was aspirated, and 5 mL of culture medium was added to resuspend to ensure that the cell density is 2-5×10^6/mL.
Both the single-cell high-impedance sealing and whole-cell mode formation processes were automatically completed by the Qpatch instrument. After obtaining the whole-cell recording mode, the cell was clamped at -80 mV. Before a 5-second +20 mV depolarizing stimulus was given, a 50-ms -50 mV pre-voltage was given, and then the cell was repolarized to -50 mV for 5 seconds and then returned to -80 mV. This voltage stimulation was applied every 15 seconds. After recording for 2 minutes, the extracellular solution was recorded for 2 minutes. Then the drug administration process began. The compound concentration started from the lowest tested concentration. Each tested concentration was given for 2 minutes. […] At least three cells were tested for each concentration (n≥3).
The compound stock solution was diluted with extracellular fluid, 5 µL of 20 mM compound stock solution was added to 2495 µL extracellular fluid, diluted 500 times to 40 µM, and then serially diluted 3 times in extracellular fluid containing 0.2% DMSO (v/v) to obtain the final concentration to be tested.
The experimental data were analyzed by XLFit software.

[1] = cAMP levels in hGLP-1R/HEK293 cell line, Table 1, read-out: determined EC50

T1 sequence (P43220 24-463): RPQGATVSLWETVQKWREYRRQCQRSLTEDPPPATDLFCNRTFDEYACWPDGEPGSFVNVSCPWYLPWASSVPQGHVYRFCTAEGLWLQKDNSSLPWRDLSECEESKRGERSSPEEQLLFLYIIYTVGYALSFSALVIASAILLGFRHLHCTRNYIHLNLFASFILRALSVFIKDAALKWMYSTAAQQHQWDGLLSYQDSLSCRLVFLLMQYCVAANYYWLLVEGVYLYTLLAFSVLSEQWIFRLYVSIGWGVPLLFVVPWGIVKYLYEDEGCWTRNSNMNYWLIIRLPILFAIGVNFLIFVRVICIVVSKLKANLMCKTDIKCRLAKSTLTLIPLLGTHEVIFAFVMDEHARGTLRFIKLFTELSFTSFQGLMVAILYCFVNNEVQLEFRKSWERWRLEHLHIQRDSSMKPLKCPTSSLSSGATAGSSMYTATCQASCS

SMILES | EC50 (human GLP-1 receptor; [1]) | EC50 (human GLP-1 receptor; cAMP levels of the hGLP-1R/HEK293 cell line, Table 2, comparison with reference compounds, read-out: EC50) | IC50 (hERG potassium channels)
COc1cc(C(F)(F)F)ccc1COc1cccc(N2C=NN(Cc3nc4c(OC)cc(C(=O)O)cc4n3C[C@@H]3CCO3)CC2)n1 [Compound 23, (S)-4-methoxy-2-((4-(6-((2-methoxy-4-(trifluoromethyl)benzyl)oxy)pyridin-2-yl)-5,6-dihydro-1,2,4-triazin-1(4H)-yl)methyl)-1-(oxetan-2-ylmethyl)-1H-benzo[d]imidazole-6-carboxylic acid] | 0.0015 nM |  | > 40000 nM
[2H]C([2H])([2H])Oc1cc(C(=O)O)cc2c1nc(CN1CCC(c3cccc4c3OC(C)(c3ccc(C(F)(F)F)cn3)O4)CC1)n2C[C@@H]1CCO1 (stereo partly drawn) [Compound 67, 4-(methoxy-d3)-2-((4-(2-methyl-2-(5-(trifluoromethyl)pyridin-2-yl)benzo[d][1,3]dioxol-4-yl)piperidin-1-yl)methyl)-1-(((S)-oxetan-2-yl)methyl)-1H-benzo[d]imidazole-6-carboxylic acid] | 0.0141 nM |  | > 40000 nM
COc1cc(C(=O)O)cc2c1nc(CN1CCN(c3cccc4c3OC(C)(c3ccc(Cl)cc3F)O4)C=N1)n2C[C@@H]1CCO1 (stereo partly drawn) [Compound 63, 2-((4-(2-(4-chloro-2-fluorophenyl)-2-methylbenzo[d][1,3]dioxol-4-yl)-5,6-dihydro-1,2,4-triazin-1(4H)-yl)methyl)-4-methoxy-1-(((S)-oxetan-2-yl)methyl)-1H-benzo[d]imidazole-6-carboxylic acid] | 0.0152 nM |  | > 40000 nM
[2H]C([2H])([2H])Oc1cc(C(=O)O)cc2c1nc(CN1CCC(c3cccc4c3OC(C)(c3ccc(Cl)cn3)O4)CC1)n2C[C@@H]1CCO1 (stereo partly drawn) [Compound 61, 2-((4-(2-(5-chloropyridin-2-yl)-2-methylbenzo[d][1,3]dioxol-4-yl)piperidin-1-yl)methyl)-4-(methoxy-d3)-1-(((S)-oxetan-2-yl)methyl)-1H-benzo[d]imidazole-6-carboxylic acid] | 0.0103 nM |  | > 40000 nM
COc1cc(C(=O)O)cc2c1nc(CN1CCN(c3cccc(OCc4ccc(Cl)cc4F)n3)C=N1)n2C[C@@H]1CCO1 [Compound 17, (S)-2-((4-(6-((4-chloro-2-fluorobenzyl)oxy)pyridin-2-yl)-5,6-dihydro-1,2,4-triazin-1(4H)-yl)methyl)-4-methoxy-1-(oxetan-2-ylmethyl)-1H-benzo[d]imidazole-6-carboxylic acid] | 0.0047 nM |  | > 40000 nM
CCOc1cc(C(=O)O)cc2c1nc(CN1CCC(c3cccnc3OCc3ccc(Cl)cc3F)CC1)n2C[C@@H]1CCO1 [Compound 32, (S)-2-((4-(2-((4-chloro-2-fluorobenzyl)oxy)pyridin-3-yl)piperidin-1-yl)methyl)-4-ethoxy-1-(oxetan-2-ylmethyl)-1H-benzo[d]imidazole-6-carboxylic acid] | 0.0142 nM |  | 
N#Cc1ccc(COc2cccc(C3CCN(Cc4nc5ccc(C(=O)O)cc5n4C[C@@H]4CCO4)CC3)n2)c2occc12 [CN113480534 , Compound 3, reference compound] |  | 0.0127 nM | 
[2H]C([2H])([2H])Oc1cc(C(=O)O)cc2c1nc(CN1CCN(c3cccc(OCc4ccc(C#N)cc4F)n3)C=N1)n2C[C@@H]1CCO1 [Compound 12, (S)-2-((4-(6-((4-cyano-2-fluorobenzyl)oxy)pyridin-2-yl)-5,6-dihydro-1,2,4-triazin-1(4H)-yl)methyl)-4-(methoxy-d3)-1-(oxetan-2-ylmethyl)-1H-benzo[d]imidazole-6-carboxylic acid] | 0.004 nM |  | 
[2H]C([2H])([2H])C([2H])([2H])Oc1cc(C(=O)O)cc2c1nc(CN1CCN(c3cccc4c3OC(C)(c3ccc(C(F)(F)F)cc3F)O4)C=N1)n2C[C@@H]1CCO1 (stereo partly drawn) [Compound 82] | 0.0131 nM |  | > 40000 nM

Further lines, with some results ahead:

EC50 (human GLP-1 receptor; [1]) | EC50 (human GLP-1 receptor; cAMP levels of the hGLP-1R/HEK293 cell line, Table 2, comparison with reference compounds, read-out: EC50) | SMILES | IC50 (hERG potassium channels)
0.0084 nM |  | [2H]C([2H])([2H])C([2H])([2H])Oc1cc(C(=O)O)cc2c1nc(CN1CCN(c3cccc4c3OC(C)(c3ccc(Cl)cn3)O4)C=N1)n2C[C@@H]1CCO1 (stereo partly drawn) [Compound 73, 2-((4-(2-(5-chloropyridin-2-yl)-2-methylbenzo[d][1,3]dioxol-4-yl)-5,6-dihydro-1,2,4-triazin-1(4H)-yl)methyl)-4-(ethoxy-d5)-1-(((S)-oxetan-2-yl)methyl)-1H-benzo[d]imidazole-6-carboxylic acid] | > 40000 nM
0.0084 nM |  | CCOc1cc(C(=O)O)cc2c1nc(CN1CCN(c3cccc4c3OC(C)(c3ccc(C(F)(F)F)cc3F)O4)C=N1)n2C[C@@H]1CCO1 (stereo partly drawn) [Compound 81, 4-ethoxy-2-((4-(2-(2-fluoro-4-(trifluoromethyl)phenyl)-2-methylbenzo[d][1,3]dioxol-4-yl)-5,6-dihydro-1,2,4-triazin-1(4H)-yl)methyl)-1-(((S)-oxetan-2-yl)methyl)-1H-benzo[d]imidazole-6-carboxylic acid] | > 40000 nM
0.0012 nM |  | CCOc1cc(C(=O)O)cc2c1nc(CN1CCN(c3cccc(OCc4ccc(C#N)cc4F)n3)C=N1)n2C[C@@H]1CCO1 [Compound 9, (S)-2-((4-(6-((4-cyano-2-fluorobenzyl)oxy)pyridin-2-yl)-5,6-dihydro-1,2,4-triazin-1(4H)-yl)methyl)-4-ethoxy-1-(oxetan-2-ylmethyl)-1H-benzo[d]imidazole-6-carboxylic acid] | > 40000 nM
0.0045 nM |  | [2H]C([2H])([2H])C([2H])([2H])Oc1cc(C(=O)O)cc2c1nc(CN1CCN(c3cccc4c3OC(C)(c3ccc(Cl)cc3F)O4)C=N1)n2C[C@@H]1CCO1 (stereo partly drawn) [Compound 76, 2-((4-(2-(4-chloro-2-fluorophenyl)-2-methylbenzo[d][1,3]dioxol-4-yl)-5,6-dihydro-1,2,4-triazin-1(4H)-yl)methyl)-4-(ethoxy-d5)-1-(((S)-oxetan-2-yl)methyl)-1H-benzo[d]imidazole-6-carboxylic acid] | > 40000 nM
0.0438 nM |  | [2H]C([2H])([2H])C([2H])([2H])Oc1cc(C(=O)O)cc2c1nc(CN1CCN(c3cccc4c3OC(C)(c3cc(F)c(Cl)cc3F)O4)C=N1)n2C[C@@H]1CCO1 (stereo partly drawn) [Compound 80, 2-((4-(2-(4-chloro-2,5-difluorophenyl)-2-methylbenzo[d][1,3]dioxol-4-yl)-5,6-dihydro-1,2,4-triazin-1(4H)-yl)methyl)-4-(ethoxy-d5)-1-(((S)-oxetan-2-yl)methyl)-1H-benzo[d]imidazole-6-carboxylic acid] | 
